# According to paper PMC8252432 (Angewandte Chemie (International Ed. in English), 2021):
# Tested on: trypsin
# Assay: Trypsin digestion of Angiotensin III, LC-MS
# Assay type: in vitro ADME
# Conditions: 10 mM phosphate buffer pH 7.4, no nanoparticle (Figure 1a)
smiles,measurement,value
"CC[C@H](C)[C@H](NC(=O)[C@H](Cc1ccc(O)cc1)NC(=O)[C@@H](NC(=O)[C@@H](N)CCCN=C(N)N)C(C)C)C(=O)N[C@@H](Cc1c[nH]cn1)C(=O)N1CCC[C@H]1C(=O)N[C@@H](Cc1ccccc1)C(=O)O [A‐III, Angiotensin III]",time in which the peptide could be cleaved in buffer,120 min
